In patent publication US20240150366A1, “4-AMINOQUINAZOLINE COMPOUND” (Astellas Pharma Inc., priority 2021, published 2024):
pIC50: −log10 of the molar value. Where two headings read alike, the source gives them in different places.

Columns and labels:
[1] = molecular target: KRAS G12D/SOS/c-Raf complex (Homo sapiens (Human), UniProt P01116, G12D); experiment: KRAS G12D/SOS/c-Raf complex formation inhibitory activity (TR-FRET); assay type: biochemical; settings: human recombinant proteins, 1 hour at room temperature, read-out: IC50, KRAS G12D/SOS/c-Raf complex formation inhibition
Experimental: Using human recombinant KRAS G12D, SOS and c-Raf proteins, the inhibitory activity of subject compounds on the complex formation of the proteins was examined by a time-resolved fluorescence resonance energy transfer (TR-FRET) method.
Biotinylated AviTag-KRAS G12D (amino acid region of 1-185, GDP) (2.5 μL; 400 nM) and subject compounds dissolved in an assay buffer (50 mM HEPES, 150 mM NaCl, 5 mM MgCl2, 0.05% Tween 20, pH 7.0) were added to a 384-well plate (from Corning) in a liquid volume of 2.5 μL at 40,000 nM to 40 nM. Son of Sevenless (SOS) (amino acid region of 564-1049, 2.5 μL; 1.3 μM) and c-Raf (amino acid region of 51-131) GST (2.5 μL; 130 nM) containing GTP (from Sigma-Aldrich; 2 μM) were added to the plate, and the plate was allowed to stand for 1 hour at room temperature. Then, a mixture liquid (10 μL) of LANCE Ulight-anti-GST (from PerkinElmer; 120 nM) and LANCE Eu-W1024 labeled Streptoavidin (from PerkinElmer; 100 ng/mL) was added, and the 620-nm and 665-nm fluorescence intensities were measured using EnVision 2104 (from PerkinElmer) under the conditions of an excitation wavelength of 337 nm. After standardizing the values with the fluorescence intensity at a reference wavelength of 620 nm, the 50% inhibitory concentrations (IC50) were calculated by Sigmoid-Emax model nonlinear regression analysis with the signaling value in treatment with the solvent taken as 0% inhibition and with the signaling value without the addition of GTP taken as 100% inhibition.

[2] = test system: KRAS G12D mutant-positive pancreatic cancer line AsPC-1; experiment: Non-anchorage-dependent cell growth inhibitory activity in AsPC-1 (spheroid 3D culture); assay type: cell-based; settings: Homo sapiens, ASPC1, 144 h, read-out: IC50, non-anchorage-dependent cell growth inhibition
Experimental: The non-anchorage-dependent cell growth inhibitory activities of subject compounds were evaluated by spheroid 3D cell culture.
AsPC-1 cells were seeded at 36 μL/well on a low-cell-adhesive round bottom 384-well plate (Prime Surface: from Sumitomo Bakelite) to give 5×10^2 cells per well. The cell culture was performed under the same conditions as in the Test Example 2.
The next day, the subject compounds (6 points having final concentrations in the range of 10 μM to 3.0 nM) and DMSO, which was the solvent for the subject compounds, as a negative control were diluted 100-fold with a fresh medium and were each added at 4 μL per well. After culturing in the presence of 5% CO2 at 37° C. for six days, CellTiter Glo 2.0 (from Promega) was added at 20 μL per well. After stirring with a plate mixer (from FINEPCR) at normal temperature for an hour, the luminescent signals were measured with ARVO X3 (from PerkinElmer).
With the signaling value in treatment with DMSO taken as 0% inhibition and with the signaling value in the medium alone without cells taken as 100% inhibition, the 50% inhibition values (IC50) were calculated by Sigmoid-Emax model nonlinear regression analysis.

[3] = test system: ERK phosphorylation (Thr202/Tyr204) in KRAS G12D mutant-positive pancreatic cancer line AsPC-1; experiment: ERK phosphorylation inhibitory activity in AsPC-1 (cell ELISA); assay type: cell-based; settings: Homo sapiens, read-out: IC50, ERK phosphorylation inhibition
Experimental: The ERK phosphorylation inhibitory activities of subject compounds were evaluated by measuring phosphorylation of the 202th threonine (Thr202) and the 204th tyrosine (Tyr204) of ERK located downstream of the KRAS signal by cell ELISA.
AsPC-1 cells (ATCC, CRL-1682) were seeded at 36 μL/well on a 384-well plate (from Greiner bio-one) to give 2.0×10^4 cells per well. As for the cell culture conditions, RPMI-1640 medium (from Sigma-Aldrich) containing 10% fetal bovine serum (from GE Life Sciences) was used in the presence of 5% CO2 at 37° C.
The next day, the subject compounds (6 points having final concentrations in the range of 10 μM to 0.3 nM), trametinib (MEK inhibitor) of a final concentration of 1 μM as a positive control and DMSO, which was the solvent for the subject compounds, as a negative control were diluted 100-fold with a fresh medium and were each added at 4 μL per well, followed by culturing for 2 hours. After culturing, a 30% glyoxal solution (40% glyoxal [from Wako] was diluted with Phosphate Buffered Saline [PBS; from Wako) was quickly added at 30 μL per well, and the plate was allowed to stand for an hour at room temperature to thus immobilize the cells. Then, the plate was centrifuged (110× g, seven seconds, hereinafter centrifugation was performed under the same conditions unless otherwise specified) to remove the supernatant, and 0.1% Triton X-100 (from Amersham Biosciences)—containing PBS was added at 20 μL per well. After allowing the plate to stand for 10 minutes at room temperature, the supernatant was removed by centrifugation, and the same operation was further repeated. Next, 0.5% sodium dodecyl sulfate (SDS; from Invitrogen)-containing PBS was added at 20 μL per well. The plate was allowed to stand at room temperature for 30 minutes and was then centrifuged to remove the supernatant. Subsequently, a blocking solution (Intercept Blocking Buffer; from LI-COR Biosciences) was added at 20 μL per well, and the plate was allowed to stand for an hour at room temperature. The supernatant was removed by centrifugation, and an ERK (Thr202/Tyr204) phosphorylation antibody (Phospho-p44/42 MAPK (Erk 1/2) (Thr202/Tyr204) (D13.14.4E) XP Rabbit mAb; from Cell Signaling Technology) diluted 2,500-fold with the blocking solution was added at 10 μL per well as a primary antibody. The plate was allowed to stand at 4° C. overnight.
The next day, the plate was centrifuged to remove the supernatant, and 0.05% Tween-20-containing PBS (from Thermo Scientific; 20× PBS Tween-20 was diluted 20-fold with ion exchange water and used) was added at 20 μL per well. The supernatant was removed by centrifugation to thus wash each well. The washing was performed three times in total. After washing, an IRDye 800CW Goat anti-Rabbit IgG (from LI-COR Biosciences) diluted 1,000-fold with the blocking solution was added at 10 μL per well as a secondary antibody, and the plate was allowed to stand for an hour at room temperature. The plate was centrifuged to remove the supernatant, and each well was washed three times with 0.05% Tween-20-containing PBS in the same manner as after the primary antibody reaction. Centrifugation after the third washing was performed at 171×g for 17 seconds. After removing the supernatant, the plate was dried as it was with air at room temperature for three hours or more, and the 800-nm fluorescent signals were measured with Aerius (from LI-COR Biosciences).
With the signaling value at the time of addition of DMSO taken as 0% inhibition and with the signaling value at the time of addition of […] trametinib taken as 100% inhibition, the 50% inhibition values (IC50) were calculated by Sigmoid-Emax model nonlinear regression analysis.

Sequence of KRAS G12D/SOS/c-Raf complex (P01116 other isoform, or with tags, fused parts or gaps G12D): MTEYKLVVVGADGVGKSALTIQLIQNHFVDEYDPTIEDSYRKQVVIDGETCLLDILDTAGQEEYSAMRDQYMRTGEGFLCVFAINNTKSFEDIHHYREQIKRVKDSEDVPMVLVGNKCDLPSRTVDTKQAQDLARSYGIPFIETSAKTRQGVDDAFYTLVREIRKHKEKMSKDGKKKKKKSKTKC

Row | SMILES | pIC50 [1] | pIC50 [2] | pIC50 ([3]; ASPC1, 2 h) | pIC50 ([2]; AsPC-1 spheroid 3D culture, six days, CellTiter Glo 2.0) | pIC50 ([3]; ASPC1, AsPC-1 cells, 2 hours culture, cell ELISA)
1 | CCN1CCN(Cc2ccc(COc3c(-c4c(C)c(F)cc5[nH]ncc45)c(C4CC4)cc4c(N5C[C@@H]6C[C@H]5CN6)nc(OC5CCOCC5)nc34)cc2)C(=O)C1 [Example 4, 1-({4-[({6-cyclopropyl-4-[(1S,4S)-2,5-diazabicyclo[2.2.1]heptan-2-yl]-7-(6-fluoro-5-methyl-1H-indazol-4-yl)-2-[(oxan-4-yl)oxy]quinazolin-8-yl}oxy)methyl]phenyl}methyl)-4-ethylpiperazin-2-one] | 7.00 | 7.00 | 7.43 |  | 
2 | Cc1c(F)cc2[nH]ncc2c1-c1c(C2CC2)cc2c(N3C[C@@H]4C[C@H]3CN4)nc(OC3CCOCC3)nc2c1OCc1ccc(Cn2nc3n(c2=O)CCOC3)cc1 [Example 12, 2-({4-[({6-cyclopropyl-4-[(1S,4S)-2,5-diazabicyclo[2.2.1]heptan-2-yl]-7-(6-fluoro-5-methyl-1H-indazol-4-yl)-2-[(oxan-4-yl)oxy]quinazolin-8-yl}oxy)methyl]phenyl}methyl)-2,5,6,8-tetrahydro-3H-[1,2,4]triazolo[3,4-c][1,4]oxazin-3-one] | 7.13 | 6.82 | 7.14 |  | 
3 | Cc1c(F)cc2[nH]ncc2c1-c1c(C2CC2)cc2c(N3C[C@@H]4C[C@H]3CN4)nc(OC3CCOCC3)nc2c1OCc1ccc(Cc2ncn(C3CC3)n2)cc1 [Example 14, 6-cyclopropyl-8-({4-[(1-cyclopropyl-1H-1,2,4-triazol-3-yl)methyl]phenyl}methoxy)-4-[(1 S,4S)-2,5-diazabicyclo[2.2.1]heptan-2-yl]-7-(6-fluoro-5-methyl-1H-indazol-4-yl)-2-[(oxan-4-yl)oxy]quinazoline] | 6.84 | 6.81 | 7.38 |  | 
4 | Cc1c(F)cc2[nH]ncc2c1-c1c(C2CC2)cc2c(N3C[C@@H]4C[C@H]3CN4)nc(OC3CCOCC3)nc2c1OCc1ccc(CN2CCN(C)CC2=O)cc1 [Example 2, 1-({4-[({6-cyclopropyl-4-[(1S,4S)-2,5-diazabicyclo[2.2.1]heptan-2-yl]-7-(6-fluoro-5-methyl-1H-indazol-4-yl)-2-[(oxan-4-yl)oxy]quinazolin-8-yl}oxy)methyl]phenyl}methyl)-4-methylpiperazin-2-one] | 7.02 |  |  | 6.78 | 7.31
